“And” between values parts separate entries of the source, which are not always exact repeats. Equal values may be shown once. Read-outs that look alike come from different tables or passages of the source.
Experiments:
[1] = Plasma pharmacokinetics by HPLC-ECD after IV dose in rhesus monkeys; settings: for concentration at 0.08 h / concentration at 0.33 h / concentration at 0.67 h / concentration at 1 h / concentration at 3 h / concentration at 6 h: intravenous, 8 mg kg^-1, Plasma concentration; for AUC(0-t): AUC 0-20, mean; for half-life: t 1/2, z
Experimental: (§1) These doses were chosen as the minimal effective doses (from previous model development and validation studies, unpublished data) and blood was collected for pharmacokinetic analysis. After a week wash-out and recovery period, P. coatneyi (1 mL of >50,000 parasitized RBCs per microlitre or 5 × 10^6 RBC with a 1 % parasitaemia) were inoculated from a donor monkey into all the monkeys. The treatment was initiated at day 6 after inoculation at a parasitaemia ≥3 % or >200,000 parasites μL^−1 when the cohort of animals was minimally symptomatic. Drugs were given for 3 days with a loading dose initially followed by ½ of the first dose on the 2nd and 3rd days.
(§2) Blood was collected for pharmacokinetic/pharmacodynamics (PK/PD) analysis after the first dose only due to rapid clearance of artemisinin derivatives. Heparinized blood was collected at 0, 5, 20, 40 min, 1, 3, and 6 h post-dose and plasma samples were separated within 2 h by centrifugation (1500g, 10 min). Aliquots of samples were made for simultaneous measurement by HPLC [16] and bioassay [14], and stored at −80 °C until analysis. All glassware was silanized before use with a 0.5 % aqueous solution (v/v) of Pierce Aquasil (Rockford, IL, USA) according to the manufacturer’s recommended procedure. Solid-phase extraction was performed on C-18 elution cartridge (3.0 ml, J.T. Baker Co.) using a VAC ELUTE SPS24 sample processing station (Analytichem International, Harbour City, CA, USA). The cartridge was preconditioned by sequential washing with 2.5 ml acetonitrile, 2.5 ml methanol and 2.5 ml water. One ml of distilled water was added to the cartridge before adding plasma sample (0.5 ml). Then, the cartridge was washed with 2.5 ml distilled water, 2.5 ml of 0.05 % H3PO4 (pH 4.5) and 2.5 ml of 20 % acetonitrile and completely dried by closing the vacuum for 15 min. The analytes were collected by eluting with 0.5 ml methanol three times and then with 0.5 ml 90:10 n-butyl chloride: ethyl acetate twice. The organic phases were pooled. The combined organic phases were then evaporated to dryness under a stream of nitrogen at room temperature. Extraction residues were reconstituted with 50:50 ethanol: water (0.3 ml), at least 16 h before injection. The injection volume was 100 µl for all samples.
(§3) The plasma concentration of parent drugs, AL and AS, and their primary metabolites, DHA and 2-hydroxyartelinate (OHAL) respectively, were measured by HPLC with electrochemical detection in reductive mode (HPLC-ECD) [16], which was the only method for artemisinin compounds then (Additional files 1 and 2).
(§4) HPLC with reductive electrochemical detection was performed using a model BAS 200B liquid chromatography (Bioanalytical Systems, Inc., West Lafayette, Indiana, USA). A Nova-Pak® C18 (3.9 × 150 mm, Waters Corporation, Milford, MA, USA) was used with 40 % acetonitrile in sodium acetate buffer (pH 3.6) as mobile phase. Detection was performed using a thin dual-layer glassy carbon electrode run in parallel mode at a potential of −1.0 V versus Ag/AgCl. The system was operated at the following temperatures: mobile phase 35 °C, column and detector oven 30 °C, cell 31 °C with the flow rate of 1.5 mL min^−1. Artemisinin (ART) was used as an internal standard. Samples were injected via Gilson model 231 XL sampling injector equipped with a 100 µL loop, a Gilson model 401 dilutor/pipettor, a sampler controller keypad (Gilson Medical Electronics, Middleton, WI, USA), and a Valco electrically actuated switching valve (Valco Instrument Co. Inc) was used. This system automatically deoxygenated and injected sample, which permits the high sample throughput associated with automated injection. Data were acquired and analysed using a Millennium^32 Chromatography Manager (Waters Corporation, Milford, MA, USA).

Plasmodium coatneyi = assay: In vivo pharmacodynamics (parasite clearance) in uncomplicated P. coatneyi-infected splenectomized rhesus monkey model
Experimental: Twenty-two adult colony-born, Indian-origin rhesus macaques (Macaca mulatta) naïve monkeys were splenectomized and recovered well more than 1 month prior to entering the study. […] Twenty-two animals were randomized to two experiments of 11 monkeys. […] The control monkeys received intramuscular quinine treatment and the experimental animals received intravenous artemisinin candidates.
Based on our previous model validation, blood smears were performed to detect malaria parasites starting prior to inoculation on day 0 and continued daily (0700–0800 h). The monkeys were physically restrained in the squeeze cage restraint apparatus and approximately 0.1–0.2 ml whole blood was collected from each monkey by lancet puncture of the lateral auricular vein. Thick and thin smears were made on the same microscope glass slide and subsequently fixed in methanol and stained with Giemsa. When the smears were positive, white blood cell count (WBC) and/or red blood cell count (RBC) were also performed using automated haematology analyzer Sysmex K800 to calculate parasite density. Haematocrits were checked as needed. At study days 6–12, additional blood samples were obtained from all animals in the afternoon (1500–1600 h) to monitor parasitaemia levels. Daily blood smears were continued until two consecutive days with negative smears. Then the smear monitoring schedule was reduced to two times weekly for 2 weeks and then weekly for 6 weeks after completion of the last treatment.
Blood smear staining and parasitaemia determination took about 2 h. […] The control monkey received quinine treatment and the ten experimental animals received intravenous artemisinin derivative candidate.
After a week wash-out and recovery period, P. coatneyi (1 mL of >50,000 parasitized RBCs per microlitre or 5 × 10^6 RBC with a 1 % parasitaemia) were inoculated from a donor monkey into all the monkeys. The treatment was initiated at day 6 after inoculation at a parasitaemia ≥3 % or >200,000 parasites μL^−1 when the cohort of animals was minimally symptomatic. Drugs were given for 3 days with a loading dose initially followed by ½ of the first dose on the 2nd and 3rd days.
Blood smear were collected once daily in the morning. Once positive parasitaemia was observed and reached 2000 parasites μL^−1, blood smears were collected twice, in the morning and afternoon. Blood for slides preparation were collected from ear for thick and thin smear preparation. Blood films on glass slides were air dried, fixed with 100 % methanol, stained with Giemsa, and read under ×100 magnification oil emersion for parasite determination.
First, a thick smear was performed for parasite detection by reading the slides at least 50 fields under ×100 magnification oil emersion.

[2] = Deaths and tolerability in P. coatneyi-infected rhesus monkeys; assay type: in vivo, rhesus macaques (Macaca mulatta); settings: for Deaths: infected rhesus, IV AL 11.8 mg kg^−1
[3] = design: method as in PMID 16860356, PMID 16126619; settings: rats; cited from earlier work
P. falciparum clone (W2) = assay: Ex vivo Plasmodium falciparum-based bioassay (BA) of rhesus plasma, effect kinetics (ePD) as DHA equivalents; assay type: cell-based; settings: for Bioactivity %AUC20 / Bioactivity Cl: mean
Experimental: Blood was collected for pharmacokinetic/pharmacodynamics (PK/PD) analysis after the first dose only due to rapid clearance of artemisinin derivatives. Heparinized blood was collected at 0, 5, 20, 40 min, 1, 3, and 6 h post-dose and plasma samples were separated within 2 h by centrifugation (1500g, 10 min). Aliquots of samples were made for simultaneous measurement by HPLC [16] and bioassay [14], and stored at −80 °C until analysis.
The plasma anti-malarial activities of the artemisinin derivatives were measured using a previously published method [14]. […] After centrifugation, the supernatant (100 µL) was transferred to a 96-well flat bottom plate. Twofold serial dilutions were then made using heat inactivated pooled control serum (human:rhesus = 1:1). A suspension of malaria (W2 clone) infected erythrocytes was added to each well. The microtitre plate was placed into a gas-tight plexiglass chamber, flushed with a gas mixture of 90 % CO2, 5 % O2, and 5 % N2, and placed into an incubator (37 °C). Following 24 h incubation, the plate was removed from the chamber and pulsed with [^3H]-hypoxanthine solution to each well and incubated for another 18–20 h before harvesting. The incorporation of [^3H]-hypoxanthine by the parasites in each well was determined by counting in a scintillation counter.
A dose–response curve for each plasma sample was constructed by plotting [^3H]-hypoxanthine uptake on the Y-axis against the corresponding dilution factor on the X-axis after logarithmic transformation. The dilution factor value that inhibits parasite growth by 50 % (DF50) of each plasma sample was determined.

[4] = rhesus monkey, in vivo
Experimental: as §1, §2, §3, §4

[5] = DHA equivalents, infected rhesus

In the case of C[C@H]1[C@@H](O)O[C@@H]2O[C@@]3(C)CC[C@H]4[C@H](C)CC[C@@H]1[C@@]24OO3 [DHA, dihydroartemisinin], the “Time of highest level post-dose” value ([1]; after IV AS) is reported as 5 min, the “%AUC20” value ([1]; mean, healthy rhesus) is reported as 23.8% and the “%AUC20” value ([1]; mean, infected rhesus) is reported as 27.0%. It also gave a concentration at 0.08 h ([1]; rhesus monkey, plasma, mean, 0.08 h, healthy rhesus, after IV AL 11.8 or AS 8.0 mg/kg) of 7.89 µM, a concentration at 0.08 h ([1]; rhesus monkey, plasma, mean, 0.08 h, infected rhesus, after IV AL 11.8 or AS 8.0 mg/kg) of 6.74 µM and a concentration at 0.33 h ([1]; rhesus monkey, plasma, mean, 0.33 h, healthy rhesus) of 6.75 µM. It also gave a concentration at 0.33 h ([1]; rhesus monkey, plasma, mean, 0.33 h, infected rhesus) of 5.92 µM, a concentration at 0.67 h ([1]; rhesus monkey, plasma, mean, 0.67 h, healthy rhesus) of 4.51 µM and a concentration at 0.67 h ([1]; rhesus monkey, plasma, mean, 0.67 h, infected rhesus) of 4.21 µM. It also gave a concentration at 1 h ([1]; rhesus monkey, plasma, mean, 1.0 h, healthy rhesus) of 3.52 µM, a concentration at 1 h ([1]; rhesus monkey, plasma, mean, 1.0 h, infected rhesus) of 2.68 µM and a concentration at 3 h ([1]; rhesus monkey, plasma, mean, 3.0 h, healthy rhesus) of 310 nM. The concentration at 3 h ([1]; rhesus monkey, plasma, mean, 3.0 h, infected rhesus) was 160 nM, the concentration at 6 h ([1]; rhesus monkey, plasma, mean, 6.0 h, healthy rhesus) was 0 nM and the concentration at 6 h ([1]; rhesus monkey, plasma, mean, 6.0 h, infected rhesus) was 0 nM. The AUC(0-t) ([1]; rhesus monkey, plasma, iv, 8 mg/kg, healthy rhesus) was 2.17 µM·h, the AUC(0-t) ([1]; rhesus monkey, plasma, iv, 8 mg/kg, infected rhesus) was 1.87 µM·h and the AUC(0-inf) ([1]; rhesus monkey, plasma, iv, 8 mg/kg, AUC(0-inf), mean, healthy rhesus) was 9.28 µM·h. The AUC(0-inf) ([1]; rhesus monkey, plasma, iv, 8 mg/kg, AUC(0-inf), mean, infected rhesus) was 7.45 µM·h, the Cmax ([1]; rhesus monkey, plasma, iv, 8 mg/kg, Cmax, mean, P. coatneyi infected rhesus, IV AL/Lys 11.8 or AS/Na 8 mg/kg, analyte = label) was 6.85 µM and the Cmax ([1]; rhesus monkey, plasma, iv, 8 mg/kg, Cmax, mean, healthy rhesus, IV AL/Lys 11.8 or AS/Na 8 mg/kg, analyte = label) was 8.1 µM. For the same compound, the half-life ([1]; rhesus monkey, plasma, iv, 8 mg/kg, mean, healthy rhesus) was 35.9 min and the half-life ([1]; rhesus monkey, plasma, iv, 8 mg/kg, mean, infected rhesus) was 30 min.
In the case of CC1CCC2C(C)C(OCc3ccc(C(=O)O)cc3)OC3OC4(C)CCC1C32OO4.CC1CCC2C(C)C(OCc3ccc(C(=O)O)cc3)OC3OC4(C)CCC1C32OO4.O (stereo not drawn) [IV AL, 4-(10′ dihyro-artemisinin-oxymethyl) benzoic acid hemihydrate], the “Plasma concentration, mean” value ([1]; 0.08 h, healthy rhesus, after IV AL 11.8 or AS 8.0 mg/kg) is reported as 61.58 µmol/L, the “Plasma concentration, mean” value ([1]; 0.08 h, infected rhesus, after IV AL 11.8 or AS 8.0 mg/kg) is reported as 62.96 µmol/L and the “Plasma concentration, mean” value ([1]; 0.33 h, healthy rhesus) is reported as 43.27 µmol/L. The “Plasma concentration, mean” value ([1]; 0.33 h, infected rhesus) was 46.68 µmol/L, the “Plasma concentration, mean” value ([1]; 0.67 h, healthy rhesus) was 26.12 µmol/L and the “Plasma concentration, mean” value ([1]; 0.67 h, infected rhesus) was 26.79 µmol/L. For the same compound, the “Plasma concentration, mean” value ([1]; 1.0 h, healthy rhesus) was 16.73 µmol/L, the “Plasma concentration, mean” value ([1]; 1.0 h, infected rhesus) was 21.04 µmol/L and the “Plasma concentration, mean” value ([1]; 3.0 h, healthy rhesus) was 0.68 µmol/L. For the same compound, the “Plasma concentration, mean” value ([1]; 3.0 h, infected rhesus) was 1.24 µmol/L, the “Plasma concentration, mean” value ([1]; 6.0 h, healthy rhesus) was 0 µmol/L and the “Plasma concentration, mean” value ([1]; 6.0 h, infected rhesus) was 0.05 µmol/L. For the same compound, the “DHA in plasma after IV AL” value ([1]; healthy or infected monkeys) was “no DHA was found in plasma”, the “AUC0–20, parent drug” value ([1]; infected rhesus) was 925 µM·min and the “AUC0–∞, parent drug” value ([1]; infected rhesus) was 3706 µM·min. For the same compound, the Cmax ([1]; mean, P. coatneyi infected rhesus, IV AL/Lys 11.8 or AS/Na 8 mg/kg, analyte = label) was 61.5 µM, the “%AUC20” value ([1]; mean, healthy rhesus) was 33.4% and the “AUC 0-20” value ([1]; mean, healthy rhesus) was 940 µmol·min/L. For the same compound, the “AUC(0-inf)” value ([1]; mean, healthy rhesus) was 3,039 µmole min L^-1, the Cl ([1]; mean, healthy rhesus) was 0.45 L hr^-1 kg ^-1 and the Vz ([1]; mean, healthy rhesus) was 0.26 L kg ^-1. The “t 1/2, z” value ([1]; mean, healthy rhesus) was 25.3 min, the Cmax ([1]; mean, healthy rhesus, IV AL/Lys 11.8 or AS/Na 8 mg/kg) was 61.6 µM and the “%AUC20” value ([1]; mean, infected rhesus) was 31.5%. The “AUC 0-20” value ([1]; mean, infected rhesus) was 954 µmol·min/L, the “AUC(0-inf)” value ([1]; mean, infected rhesus) was 3,392 µmole min L^-1 and the Cl ([1]; mean, infected rhesus) was 0.43 L hr^-1 kg ^-1. The Vz ([1]; mean, infected rhesus) was 0.28 L kg ^-1, the “t 1/2, z” value ([1]; mean, infected rhesus) was 29.6 min and the “Vz, parent” value ([1]; median, infected rhesus) was 0.259 L/kg. The “% AUC0–20 / AUC0–∞” value ([1]; parent drug, infected rhesus) was 24.6%, the Cmax ([1]; read-out: Cmax, parent drug, infected rhesus) was 60.2 µM and the “Parasite/µL, mean” value (Plasmodium coatneyi; 0.29 day post-dose) was 704,770 Parasite/µL. For the same compound, the “Parasite Reduction” value (Plasmodium coatneyi; 0.29 day post-dose, IV AL experiment (mean; IM QN = its control monkey)) was 20.4%, the “Parasite/µL, mean” value (Plasmodium coatneyi; 1.00 day post-dose) was 124,294 Parasite/µL and the “Parasite Reduction” value (Plasmodium coatneyi; 1.00 day post-dose, IV AL experiment) was 82.2%. The “Parasite/µL, mean” value (Plasmodium coatneyi; 1.29 day post-dose) was 32,703 Parasite/µL, the “Parasite Reduction” value (Plasmodium coatneyi; 1.29 day post-dose, IV AL experiment) was 95.2% and the “Parasite/µL, mean” value (Plasmodium coatneyi; 2.00 day post-dose) was 6,978 Parasite/µL. The “Parasite Reduction” value (Plasmodium coatneyi; 2.00 day post-dose, IV AL experiment) was 98.9%, the “Parasite/µL, mean” value (Plasmodium coatneyi; 2.29 day post-dose) was 3,976 Parasite/µL and the “Parasite Reduction” value (Plasmodium coatneyi; 2.29 day post-dose, IV AL experiment) was 99.4%. The “Parasite/µL, mean” value (Plasmodium coatneyi; 3.00 day post-dose) was 895 Parasite/µL, the “Parasite Reduction” value (Plasmodium coatneyi; 3.00 day post-dose, IV AL experiment) was 99.9% and the “Parasite/µL, mean” value (Plasmodium coatneyi; 3.29 day post-dose) was 377 Parasite/µL. The “Parasite Reduction” value (Plasmodium coatneyi; 3.29 day post-dose, IV AL experiment) was 99.9%, the “Parasite/µL, mean” value (Plasmodium coatneyi; 4.00 day post-dose) was 568 Parasite/µL and the “Parasite Reduction” value (Plasmodium coatneyi; 4.00 day post-dose, IV AL experiment) was 99.9%. For the same compound, the “Parasite/µL, mean” value (Plasmodium coatneyi; 4.29 day post-dose) was 8,704 Parasite/µL, the “Parasite Reduction” value (Plasmodium coatneyi; 4.29 day post-dose, IV AL experiment) was 98.5% and the “Parasite/µL, mean” value (Plasmodium coatneyi; 5.00 day post-dose) was 2,880 Parasite/µL. For the same compound, the “Parasite Reduction” value (Plasmodium coatneyi; 5.00 day post-dose, IV AL experiment) was 99.5%, the “Parasite/µL, mean” value (Plasmodium coatneyi; 5.29 day post-dose) was 1,141 Parasite/µL and the “Parasite Reduction” value (Plasmodium coatneyi; 5.29 day post-dose, IV AL experiment) was 99.8%. For the same compound, the “Parasite/µL, mean” value (Plasmodium coatneyi; 6.00 day post-dose) was 18,619 Parasite/µL, the “Parasite Reduction” value (Plasmodium coatneyi; 6.00 day post-dose, IV AL experiment) was 96.8% and the “Parasite/µL, mean” value (Plasmodium coatneyi; 6.29 day post-dose) was 92,458 Parasite/µL. For the same compound, the “Parasite Reduction” value (Plasmodium coatneyi; 6.29 day post-dose, IV AL experiment) was 84.4%, the “Parasite/µL, mean” value (Plasmodium coatneyi; 7.00 day post-dose) was 51,036 Parasite/µL and the “Parasite Reduction” value (Plasmodium coatneyi; 7.00 day post-dose, IV AL experiment) was 91.4%. For the same compound, the “PCT of individual animals” value (Plasmodium coatneyi; IV AL: the only two determinable, IV AS: the two most rapid) was 5.3 days and 4.0 days, the “Recrudescence, median (range, n)” value (Plasmodium coatneyi; in vivo) was 6.5 (6–7, 2) days and the “R, Day (recrudescence day), mean” value (Plasmodium coatneyi; n 2 IV AL, n 10 IV AS) was 6.50 days. The Treatment failure (Plasmodium coatneyi; parasite counts never reached zero) was “Six animals failed treatment”, the PC50 (Plasmodium coatneyi; range in evaluable animals (4 of 8 IV AL, 3 of 10 IV AS)) was 2.72 to 10.9 h and the Deaths [2] was “two deaths in the infected animals within 2.5 h”. For the same compound, the Deaths ([2]; listed as AL) was “two died following AL regimen before parasite clearance”, the Tolerability ([2]; other animals in the experiment) was “well tolerated by the other animals” and the toxicity [3] was “more toxic than AS”. For the same compound, the “Antimalarial activity expressed as DHA equi., mean” value (“Antimalarial activity expressed” below) (P. falciparum clone (W2); 0.08 h, healthy rhesus) was 5.69 µmol/L, the “Antimalarial activity expressed” value (P. falciparum clone (W2); 0.08 h, infected rhesus) was 7.58 µmol/L and the “Antimalarial activity expressed” value (P. falciparum clone (W2); 0.33 h, healthy rhesus) was 4.09 µmol/L. For the same compound, the “Antimalarial activity expressed” value (P. falciparum clone (W2); 0.33 h, infected rhesus) was 5.32 µmol/L, the “Antimalarial activity expressed” value (P. falciparum clone (W2); 0.67 h, healthy rhesus) was 2.56 µmol/L and the “Antimalarial activity expressed” value (P. falciparum clone (W2); 0.67 h, infected rhesus) was 3.58 µmol/L. The “Antimalarial activity expressed” value (P. falciparum clone (W2); 1.0 h, healthy rhesus) was 1.75 µmol/L, the “Antimalarial activity expressed” value (P. falciparum clone (W2); 1.0 h, infected rhesus) was 2.58 µmol/L and the “Antimalarial activity expressed” value (P. falciparum clone (W2); 3.0 h, healthy rhesus) was 0.07 µmol/L. For the same compound, the “Antimalarial activity expressed” value (P. falciparum clone (W2); 3.0 h, infected rhesus) was 0.19 µmol/L, the “Antimalarial activity expressed” value (P. falciparum clone (W2); 6.0 h, healthy rhesus) was 0 µmol/L and the “Antimalarial activity expressed” value (P. falciparum clone (W2); 6.0 h, infected rhesus) was 0 µmol/L. For the same compound, the “AUC0–20, ePD” value (P. falciparum clone (W2); [5]) was 115 µM·min, the “AUC0–∞, ePD” value (P. falciparum clone (W2); [5]) was 426 µM·min and the “Bioactivity %AUC20” value (P. falciparum clone (W2); healthy rhesus) was 31.7%. For the same compound, the “Bioactivity Cl” value (P. falciparum clone (W2); healthy rhesus) was 4.75 L hr^-1 kg ^-1, the “Bioactivity %AUC20” value (P. falciparum clone (W2); infected rhesus) was 27.7% and the “Bioactivity Cl” value (P. falciparum clone (W2); infected rhesus) was 3.08 L hr^-1 kg ^-1.
For 2-hydroxyartelinate [OHAL], the “t1/2, metabolite (M)” value [4] was 42.2 min.

Source: article PMC5011932, “Comparative pharmacokinetics and pharmacodynamics of intravenous artelinate versus artesunate in uncomplicated Plasmodium coatneyi-infected rhesus monkey model” (Malaria Journal, 2016)
